Legend:
Experiment in all cases: relative viability (nuclei count vs DMSO), 5 days (fraction); higher = more cells survive
[1] = compound: CC1=CC(=CC=C1)NC2=NC(=CS2)C3=CC=NC=C3 + C[C@@H](Oc1cc(-c2cnn(C3CCNCC3)c2)cnc1N)c1c(Cl)ccc(F)c1Cl [Crizotinib] (partner 1 µM)
In short: (§1)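 Five library-drug doses in √10 steps were combined with a fixed anchor-drug dose, or a single drug was given alone, by pin tool to lung cancer cell lines in 1536-well plates the day after seeding. Nuclei were stained and counted after 5 days. Relative viability is the nuclei count in treated wells over that in vehicle wells, taken as the median of duplicate plates.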

Masitinib + Dasatinib = compound: Cc1ccc(NC(=O)c2ccc(CN3CCN(C)CC3)cc2)cc1Nc1nc(-c2cccnc2)cs1 [Masitinib] + Cc1nc(Nc2ncc(C(=O)Nc3c(C)cccc3Cl)s2)cc(N2CCN(CCO)CC2)n1 [Dasatinib] (partner 0.075 µM)
In short: as §1

Masitinib + Luminespib = compound: Cc1ccc(NC(=O)c2ccc(CN3CCN(C)CC3)cc2)cc1Nc1nc(-c2cccnc2)cs1 [Masitinib] + CCNC(=O)c1noc(-c2cc(C(C)C)c(O)cc2O)c1-c1ccc(CN2CCOCC2)cc1 [Luminespib] (partner 0.01 µM)
In short: as §1

Masitinib + Navitoclax = compound: Cc1ccc(NC(=O)c2ccc(CN3CCN(C)CC3)cc2)cc1Nc1nc(-c2cccnc2)cs1 [Masitinib] + CC1(C)CCC(c2ccc(Cl)cc2)=C(CN2CCN(c3ccc(C(=O)NS(=O)(=O)c4ccc(N[C@H](CCN5CCOCC5)CSc5ccccc5)c(S(=O)(=O)C(F)(F)F)c4)cc3)CC2)C1 [Navitoclax] (partner 0.5 µM)
In short: as §1

Cell Line | relative viability ([1]; first compound 0.08 µM) | relative viability ([1]; first compound 0.253 µM) | relative viability ([1]; first compound 0.8 µM) | relative viability ([1]; first compound 2.53 µM) | relative viability ([1]; first compound 8 µM) | relative viability (Masitinib + Dasatinib; first compound 0.01 µM) | relative viability (Masitinib + Dasatinib; first compound 0.03162 µM) | relative viability (Masitinib + Dasatinib; first compound 0.1 µM) | relative viability (Masitinib + Dasatinib; first compound 0.3162 µM) | relative viability (Masitinib + Dasatinib; first compound 1 µM) | relative viability (Masitinib + Luminespib; first compound 0.01 µM) | relative viability (Masitinib + Luminespib; first compound 0.03162 µM) | relative viability (Masitinib + Luminespib; first compound 0.1 µM) | relative viability (Masitinib + Luminespib; first compound 0.3162 µM) | relative viability (Masitinib + Luminespib; first compound 1 µM) | relative viability (Masitinib + Navitoclax; first compound 0.01 µM) | relative viability (Masitinib + Navitoclax; first compound 0.03162 µM) | relative viability (Masitinib + Navitoclax; first compound 0.1 µM) | relative viability (Masitinib + Navitoclax; first compound 0.3162 µM) | relative viability (Masitinib + Navitoclax; first compound 1 µM)
NCI-H1734 | 0.665 | 0.667 | 0.635 | 0.653 | 0.622 | 0.449 | 0.521 | 0.508 | 0.518 | 0.416 | 0.194 | 0.195 | 0.188 | 0.187 | 0.172 | 0.861 | 0.779 | 1 | 0.933 | 0.842
NCI-H1755 | 0.86 | 0.815 | 0.803 | 0.729 | 0.522 |  | 0.455 | 0.451 | 0.422 | 0.383 |  | 0.528 | 0.414 | 0.697 | 0.331 |  | 0.975 | 1.1 | 0.931 | 0.894
NCI-H1792 | 0.99 | 0.767 | 0.886 | 0.815 | 0.947 | 0.757 | 0.342 | 0.83 | 0.718 | 1.32 | 0.341 | 0.206 | 0.41 | 0.397 | 0.402 | 0.563 | 0.239 | 0.643 | 0.65 | 0.673
NCI-H1915 | 0.84 | 0.784 | 0.838 | 0.87 | 0.8 |  | 0.214 |  | 0.319 | 0.276 |  | 0.815 |  | 0.938 | 0.896 |  | 0.755 | 0.717 | 0.737 | 0.777
NCI-H1944 | 1.08 | 0.98 | 0.973 | 1.01 | 0.948 |  | 0.204 |  | 0.215 | 0.213 |  | 0.829 |  | 0.576 | 0.697 |  | 1.02 | 0.799 | 1 | 0.995
NCI-H1975 | 0.819 | 0.737 | 0.862 | 0.758 | 0.722 | 0.427 | 0.403 | 0.427 |  | 0.279 | 0.246 | 0.287 | 0.22 | 0.156 | 0.124 | 1.15 | 1.09 | 1.14 | 0.92 | 1.01
NCI-H1993 | 0.847 | 0.706 | 0.853 | 0.91 | 0.946 | 0.554 | 0.508 | 0.577 | 0.532 | 0.52 | 0.851 | 0.791 | 0.701 | 0.7 | 0.766 | 0.921 |  | 0.944 | 0.651 | 0.885
NCI-H2009 | 0.917 | 0.97 | 1.01 | 0.939 | 0.89 | 0.291 | 0.284 | 0.324 | 0.283 | 0.244 | 0.969 | 0.938 | 1.03 | 1 | 1.06 | 1.16 | 1.12 | 1.16 | 1.17 | 1.13
NCI-H2023 | 0.603 | 0.525 | 0.507 | 0.758 | 0.37 | 0.551 | 0.602 | 0.543 | 0.395 | 0.513 | 0.61 | 0.664 | 0.786 | 0.69 | 0.753 | 1.05 | 0.981 | 1.12 | 0.925 | 0.92
NCI-H2085 | 0.64 | 0.891 | 0.918 | 0.877 | 0.627 | 0.215 | 0.249 | 0.242 | 0.278 | 0.215 | 0.368 | 0.428 | 0.423 | 0.403 | 0.443 | 1.1 | 1.23 | 1.33 | 1.16 | 1.03
NCI-H2087 | 0.895 | 1.04 | 0.847 | 0.67 | 0.838 | 0.922 | 0.927 | 1.01 | 0.775 | 0.788 | 0.158 | 0.166 | 0.153 | 0.202 | 0.181 | 0.966 | 1.02 | 1.1 | 1.08 | 0.963
NCI-H2126 | 0.975 | 1.01 | 1 | 0.983 | 0.846 | 0.681 | 0.537 | 0.653 | 0.369 | 0.525 | 0.888 | 1 | 0.951 | 0.89 | 0.794 | 0.761 | 0.807 | 0.842 | 0.823 | 0.798
NCI-H2170 | 1.11 | 1.13 | 1.09 | 1.09 | 1.05 | 0.5 | 0.473 | 0.547 | 0.56 | 0.519 | 0.645 | 0.689 | 1.02 | 0.631 | 1.02 | 0.683 | 0.486 | 0.546 | 0.577 | 0.559
NCI-H2228 | 0.318 | 0.334 | 0.4 | 0.457 | 0.352 | 0.544 | 0.461 | 0.729 | 0.523 | 0.425 | 0.172 | 0.189 | 0.16 | 0.148 | 0.15 | 0.899 | 1.05 | 1.08 | 0.705 | 0.817
NCI-H2347 | 0.544 | 0.688 | 0.468 | 0.789 | 0.777 | 0.325 | 0.293 | 0.274 | 0.279 | 0.262 | 0.758 | 0.299 | 0.41 | 0.556 | 0.326 | 0.709 | 0.764 | 0.79 | 0.861 | 0.764
NCI-H2405 | 0.684 | 0.774 | 0.615 | 0.874 | 0.808 | 0.2 | 0.214 | 0.213 | 0.238 | 0.193 | 0.606 | 0.64 | 0.692 | 0.521 | 0.571 | 0.874 | 1.01 | 1.07 | 0.731 | 0.825
